From publication PMC6112376, “Comprehensive Analyses and Prioritization of Tox21 10K Chemicals Affecting Mitochondrial Function by in-Depth Mechanistic Studies” (Environmental Health Perspectives, 2018)
Read-outs that look alike come from different tables or passages of the source.

Tests used:
rat primary hepatocytes [1] = system: rat primary hepatocytes
HepG2 cells [2] = experiment: cells; settings: Homo sapiens; for IC50: HepG2, read-out: MMP assays IC50 (µM) HepG2; for Emax: HepG2, read-out: MMP assays efficacy (%) HepG2
HepG2 cells [3] = settings: cited from earlier work
rat primary hepatocytes [4] = experiment: MMP assay in rat primary hepatocytes; settings: for IC50: read-out: MMP assays IC50 (µM) Rat Hepatocytes
HepG2 cells [5] = settings: HepG2 cells, single number from one experiment; for IC50: read-out: MMP assays IC50 (µM) HepG2
[6] = read-out: MMP assays IC50 (µM) qHTS-HepG2
[7] = read-out: MMP assays IC50 (µM), qHTS-HepG2
[8] = rat hepatocytes, mean ± SD of three experiments

| Molecule | MMP assays efficacy (%) Rat Hepatocytes (rat primary hepatocytes [1]) | IC50 (HepG2 cells [2]) [µM] | Emax (HepG2 cells [2]) [%] | MMP assays efficacy (%) qHTS-HepG2 (HepG2 cells [3]) [%] | IC50 (HepG2 cells [3]; [6]) [µM] | IC50 (rat primary hepatocytes [4]; Rattus norvegicus, Hepatocyte) [µM] | IC50 (HepG2 cells [3]; [7]) [µM] | MMP assays efficacy (%) HepG2 (HepG2 cells [5]) | IC50 (HepG2 cells [5]) [µM] | MMP assays efficacy (%) Rat Hepatocytes (rat primary hepatocytes [4]; [8]) | IC50 (rat primary hepatocytes [4]; [8]) [µM] | MMP assays IC50 (µM) Rat Hepatocytes (rat primary hepatocytes [4]; [8]) | MMP assays IC50 (µM) HepG2 (HepG2 cells [5]) |
| --- | --- | --- | --- | --- | --- | --- | --- | --- | --- | --- | --- | --- | --- |
| OC(c1ccc(Cl)cc1)(c1cncnc1)c1ccccc1Cl (stereo not drawn) [Fenarimol] | -81±45% | 35.5 | 81 | -77±13 | 42.6 ± 21.9 | 33.5 ± 2.73 | – | – | – | – | – | – | – |
| O=C(CCCN1CCC2(CC1)C(=O)NCN2c1ccccc1)c1ccc(F)cc1 [Spiperone] | -74±48% | – | 54 | -65±12 | – | – | – | – | – | – | – | – | – |
| COC(=O)Nc1nc2ccc(C(=O)c3ccccc3)cc2[nH]1 [Mebendazole] | inactive | 2.34 | 89 | -70±10 | – | – | 2.45 ± 0.34 | – | – | – | – | – | – |
| TYROTHRICIN | -89±25% | – | – | – | – | – | – | – | – | – | – | – | – |
| CCCCCCCCCCCCCC[P+](CCCCCC)(CCCCCC)CCCCCC.N#C[N-]C#N | – | – | – | -103±9 | – | – | 0.39 ± 0.19 | -94% | 0.89 | -81±9% | 31 ± 11.7 | – | – |
| CC1C2CC(CC2C2CCCC(O)C2)C1(C)C (stereo not drawn) | – | – | – | -98±23 | 31.8 ± 17.5 | – | – | -108% | 39.8 | inactive | – | inactive | – |
| O=CC=C(c1ccccc1)c1ccccc1 [2-Propenal,3,3-diphenyl-] | – | – | – | -87±29 | 41.2 ± 19.3 | – | – | -40% | 56.2 | -78±36% | 17.1 ± 23.9 | – | – |
| O=C(O)Cc1cc(I)c(Oc2cc(I)c(O)c(I)c2)c(I)c1 [3,3',5,5'-Tetraiodothyroacetic acid] | – | – | – | -87±2 | 45.8 ± 2.99 | – | – | -87% | 39 | -110±24% | 26.1 ± 2.13 | – | – |
| O=C1c2ccccc2C(=O)C1c1ccc2ccccc2n1 [D&C Yellow 11] | – | – | – | -76±6 | 0.38 ± 0.13 | – | – | -75% | 0.44 | inactive | – | inactive | – |
| O=C=Nc1cccc(C(F)(F)F)c1 [1-Isocyanato-3-(trifluoromethyl)benzene] | – | – | – | -119±7 | 3.28 ± 1.13 | – | – | -108% | 6.31 | -107±13% | 11.5 ± 3.69 | – | – |
| O=C1OC(OC(=O)c2cccnc2Nc2cccc(C(F)(F)F)c2)c2ccccc21 (stereo not drawn) [Talniflumate] | – | – | – | -105±19 | – | 16 ± 6.68 | 27 ± 2.56 | inactive | – | -85±2% | – | – | inactive |
| CCCCCCCC[n+]1ccn(C)c1.F[B-](F)(F)F [1-Methyl-3-octylimidazolium tetrafluoroborate] | – | – | – | -73±29 | 5.66 ± 5.82 | – | – | -115% | 19.9 | -76±29% | 43.4 ± 7.4 | – | – |
